Reference: patent publication US20090076029A1 (Palatin Technologies, Inc., priority 2007, published 2009)
“And” between values parts separate entries of the source, which are not always exact repeats. Equal entries are not always repeated. Where two headings read alike, the source gives them in different places.

Assays:
[1] = target: T1, hMC4-R; type: binding, human
T1 construct: expressed in transfected cells; host or cells: HEK-293
Description: Competitive binding assay using [I^125]-AgRP (83-132). Competitive binding studies using [I^125]-AgRP (83-132) were carried out on membranes isolated from cells expressing hMC4-R. The assay was performed in 96 well GF/B Millipore multiscreen filtration plates (MAFB NOB10) pre-coated with 0.5% bovine serum albumin (Fraction V). The assay mixture contained 25 mM HEPES buffer (pH 7.5) with 100 mM NaCl, 2 mM CaCl2, 2 mM MgCl2, 0.3 mM 1,10-phenanthroline, 0.5% bovine serum albumin, cell membranes, radioligand [I^125]-AgRP (83-132) (NEN), and increasing concentrations of compounds in a total volume of 200 μL. Binding was measured at radioligand concentrations of 0.2 nM. After incubating for 1 hour at 37° C., the reaction mixture was filtered and washed with an assay buffer containing 500 mM NaCl. The dried discs were punched out from the plate and counted on a gamma counter. Care was taken to limit the specific binding of the ligand to an amount not exceeding 10% of the counts added to the reaction mixture. Data were analyzed using the Prism Graph-Pad curve fitting software.

[2] = target: T2, hMC3-R; assay: Competitive inhibition assay using [I125]-NDP-α-MSH, hMC3-R membranes; type: binding, human; settings: for Ki: read-out: Ki (nM) (NDP-α-MSH) MC3-R
T2 construct: expressed in transfected cells; host or cells: HEK-293
Description: (§1) Competitive inhibition assay using [1125]-NDP-α-MSH. A competitive inhibition binding assay was conducted using membranes prepared from HEK-293 cells transfected to express hMC3-R, hMC4-R or hMC5-R, and from B-16 mouse melanoma cells (containing MC1-R) using 0.2 to 0.4 nM [I^125]-NDP-α-MSH (New England Nuclear) in 50 mM HEPES buffer containing 1 mM MgCl2, 2 mM CaCl2, and 5 mM KCl, at pH 7.2. In certain experiments, HEK-293 cells transfected to express hMC1-R were also employed. The assay tube also contained a chosen concentration of the test compound of this invention, typically a 1 μM concentration, for determining inhibition of the binding of [^1125]-NDP-α-MSH to its receptor. Non-specific binding was measured by inhibition of binding of [I^125]-NDP-α-MSH in the assay with the presence of 1 μM α-MSH.
(§2) The assay mixture was incubated for 90 minutes at room temperature, then filtered and the membranes washed three times with ice cold buffer. The filter was dried and counted in a gamma counter for remaining radioactivity bound to the membranes. 100% specific binding was defined as the difference in radioactivity (cpm) bound to cell membranes in the absence and presence of 1 μM α-MSH. The cpm obtained in presence of test compounds were normalized with respect to 100% specific binding to determine the percent inhibition of [125]-NDP-α-MSH binding. Each assay was conducted in triplicate and the actual mean values are described, with results less than 0% reported as 0%.

[3] = target: T3, MC1-R; assay: Competitive inhibition assay using [I125]-NDP-α-MSH, MC1-R membranes; type: binding, mouse; settings: for Inhibition at 1 μM (NDP-α-MSH) MC1-R: 1 μM compound
T3 construct: other: 1 μM compound
Description: as §1, §2

[4] = test system: T1, hMC4-R; assay: cAMP functional assay in HEK-293 cells expressing MC4-R (agonist, neutral antagonist/Schild); type: cell-based, human; settings: for intrinsic activity at MC4-R: NDP-α-MSH maximal stimulation = 1.0; for functional status at MC4-R: mostly at 1 μM
Description: (§3) General method for EC50 determination in functional activity assay. Functional evaluation of compounds at melanocortin receptors was performed by measuring the accumulation of intracellular cAMP in HEK-293 cells expressing hMC3-R, hMC4-R or hMC5-R, and in B-16 mouse melanoma cells expressing MC1-R. Cells suspended in Earle's Balanced Salt Solution containing 10 mM HEPES (pH 7.5), 5 mM MgCl2, 1 mM glutamine, 0.1% albumin and 0.6 mM 3-isobutyl-1-methyl-xanthine, a phosphodiesterase inhibitor, were plated in 96 well plates at a density of 0.5×10^5 cells per well. Cells were incubated with the test compounds in the presence or absence of α-MSH for 1 hour at 37° C. cAMP levels in the cell lysates were measured using an EIA kit (Amersham). Data analysis and EC50 values were determined using nonlinear regression analysis with Prism Graph-Pad software.
(§4) Functional status. The agonist/antagonist status with respect to MC1-R, MC-3R, MC4-R and MC5-R of certain compounds of the invention was determined.
Assay for agonist. Evaluation of the molecules to elicit a functional response in HEK-293 cells expressing MC4-R was accomplished by measuring the accumulation of intracellular cAMP following treatment. Confluent HEK-293 cells expressing MC4-R were detached by enzyme free cell suspension buffer. Cells were suspended in Earle's Balanced Salt Solution containing 10 mM HEPES (pH 7.5), 1 mM MgCl2, 1 mM glutamine, 0.5% albumin and 0.3 mM 3-isobutyl-1-methyl-xanthine (IBMX), a phosphodiesterase inhibitor. The cells were plated in 96 well plates at a density of 0.5×10^5 cells per well and pre-incubated for 30 minutes. The cells were then challenged with the test compounds dissolved in DMSO at a concentration range of 0.05-5000 nM in a total assay volume of 200 μL for 1 hour at 37° C. The concentration of DMSO was always held at 1% in the assay mixture. NDP-α-MSH was used as the reference agonist. At the end of the incubation period the cells were disrupted by the addition of 50 μL of lysis buffer from a cAMP EIA kit (Amersham). Complete rupture of the cells was obtained by pipetting the cells multiple times. cAMP levels in the cell lysates were measured after appropriate dilution using the EIA kit (Amersham) method. Data analysis and EC50 values were determined by using nonlinear regression analysis with Prism Graph-Pad software. […] FIG. 1 illustrates typical results, showing the stimulation of cAMP using the compound of Example 11 in HEK-293/MC4-R cells with comparison to NDP-α-MSH.
Assay for Neutral Antagonist. Compounds with a high affinity for binding to MC4-R membranes but with less potency in terms of cAMP accumulation (EC50>1000 nM) and low response ratio (<0.1) were analyzed for their ability to antagonize the stimulatory effect of the agonist NDP-α-MSH. These studies were carried out in HEK-293 cells expressing MC4-R. Cells were incubated with the compounds in the presence of the agonist NDP-α-MSH and the extent of antagonism was measured by the decrease in intracellular cAMP concentrations. Screening the compounds for antagonist activity was performed at a single concentration of NDP-α-MSH (1.0 nM) over a compound concentration range of 0.5-5000 nM.
Experimental details were similar to the analysis for agonistic activity described above. Briefly, cells were pre-incubated for 30 minutes with the test compounds at concentrations between 0.5 nM and 5000 nM. The cells were then stimulated with NDP-α-MSH at a concentration of 1 nM for 1 hour. For Schild's analysis, the interactions were studied using at least 3 concentrations of the compounds, separated by a log unit, over a full range of the agonist (0.005-5000 nM). cAMP levels were measured in the cell lysates after appropriate dilution. Nonlinear regression analysis with Prism Graph-Pad software was used for Schild analysis and to obtain EC50 values. pA2 values were derived from the Schild plot of the data.

[5] = test system: T4, hMC5-R; assay: cAMP functional assay, HEK-293 cells expressing hMC5-R; type: cell-based, human; settings: cAMP assay at 1 μM
T4 construct: expressed in transfected cells; host or cells: HEK-293
Description: as §3, §4

[6] = test system: T5, MC1-R; assay: cAMP functional assay, B-16 mouse melanoma cells expressing MC1-R; type: cell-based; settings: cAMP assay at 1 μM
T5 construct: from B-16 mouse melanoma cells (containing MC1-R); endogenous in cells; host or cells: B-16 mouse melanoma cells
Description: as §3, §4

[7] = test system: T1, hMC4-R; assay: Competitive inhibition assay using [I125]-NDP-α-MSH, hMC4-R membranes; type: binding, human; settings: for Inhibition at 1 μM (NDP-α-MSH) MC4-R: 1 μM compound; for attenuation of binding of α-MSH and AgRP to MC4-R: both ligands (NDP-α-MSH and AgRP), summary
Description: as §1, §2

[8] = target: T4, hMC5-R; assay: Competitive inhibition assay using [I125]-NDP-α-MSH, hMC5-R membranes; type: binding, human; settings: for Ki: read-out: Ki (nM) (NDP-α-MSH) MC5-R
Description: as §1, §2

[9] = test system: T2, hMC3-R; assay: cAMP functional assay, HEK-293 cells expressing hMC3-R; type: cell-based, human; settings: cAMP assay at 1 μM
Description: as §3, §4

[10] = MC4-R membranes, Table 1, read-out: Ki (nM) I125-AgRP
[11] = cAMP assay, read-out: EC50 (nM) at MC4-R
[12] = MC4-R membranes, Table 1, read-out: Ki (nM) I125-NPD-α-MSH
[13] = read-out: Ki (nM) (NDP-α-MSH) MC4-R

| Compound | Ki [1, 10] [nM] | Ki ([1]; read-out: Ki (nM) (AgRP) MC4-R) | Ki [2] [nM] | Ki [3] [nM] | Inhibition at 1 μM (NDP-α-MSH) MC1-R [3] [%] | functional status (pAg, Ag, Antag, Inactive) ([4]; MC4-R, Table 1) | EC50 ([4]; MC4-R, Table 1, read-out: EC50) [nM] | intrinsic activity at MC4-R [4] | EC50 [4, 11] [nM] | functional status at MC5-R [5] | functional status at MC1-R [6] | Inhibition at 1 μM (NDP-α-MSH) MC4-R [7] [%] | Ki [7, 12] [nM] | attenuation of binding of α-MSH and AgRP to MC4-R [7] | Ki [7, 13] [nM] | Ki [8] [nM] | functional status at MC4-R ([4]; cAMP assay) | further results |
| --- | --- | --- | --- | --- | --- | --- | --- | --- | --- | --- | --- | --- | --- | --- | --- | --- | --- | --- |
| N=C(N)NCCC[C@H]1C(=O)N(CCc2c[nH]c3ccccc23)CCN1C(=O)[C@H](N)Cc1ccc(Cl)cc1Cl [Example 2, N-(3-{(S)-1-[(R)-2-Amino-3-(2,4-dichloro-phenyl)-propionyl]-4-[2-(1H-indol-3-yl)-ethyl]-3-oxo-piperazin-2-yl}-propyl)-guanidine] | 38 | 38 | 533 | 1410 | 7 | pAg (“pAg” means partial agonist) | 604 | 0.3 | 604 | partial agonist (intrinsic activity between 0.1 (10%) and 0.7 (70%) is classified as a partial agonist) | partial agonist (intrinsic activity between 0.1 (10%) and 0.7 (70%) is classified as a partial agonist) | 96 | 15 | attenuate the binding of both α-MSH and AgRP to MC4-R | 15 | 1580 |  |  |
| CC(C)C[C@H]1CN(C(=O)[C@H](N)Cc2ccc(Cl)cc2Cl)[C@@H](CCCNC(=N)N)CN1CCc1ccc2ccccc2c1 [Example 3, N-{3-[1-[2(R)-Amino-3-(2,4-dichloro-phenyl)-propionyl]-5(S)-isobutyl-4-(2-naphthalen-2-yl-ethyl)-piperazin-2(S)-yl]-propyl}-guanidine] | 39 | 39 | 495 | 5900 | 4 | Inactive |  | no intrinsic activity |  | partial agonist (intrinsic activity between 0.1 (10%) and 0.7 (70%) is classified as a partial agonist) | partial agonist (intrinsic activity between 0.1 (10%) and 0.7 (70%) is classified as a partial agonist) | 95 | 48 |  | 48 | 698 | inactive | Inhibition at 1 μM (AgRP) MC4-R ([1]; 1 μM compound): 91%; Inhibition at 1 μM (NDP-α-MSH) MC3-R ([2]; 1 μM compound): 16%; Inhibition at 1 μM (NDP-α-MSH) MC5-R ([8]; 1 μM compound): 28% |
| C[C@@H]1CN(C(=O)[C@H](N)Cc2ccc(Cl)cc2Cl)[C@@H](CCCNC(=N)N)CN1CCc1ccc2ccccc2c1 [Example 12, N-{3-[1-[2(R)-Amino-3-(2,4-dichloro-phenyl)-propionyl]-5(R)-methyl-4-(2-naphthalen-2-yl-ethyl)-piperazin-2(S)-yl]-propyl}-guanidine] |  |  |  | 1130 | 20 | Antag (“Antag” means antagonist) |  |  |  | inactive | inactive | 99 |  |  |  |  | antagonist | pA2 value at MC4-R ([4]; Schild plot vs NDP-α-MSH): 7.52 and 7.7; functional status at MC3-R [9]: inactive |
| NH2—(CH2)6—C(═O)-Ser(Bzl)-D-Phe(4-Cl)-Arg-Trp-NH2 [Example 1] |  | 8 | 27 | 351 | 33 | pAg (“pAg” means partial agonist) | 296 | 0.3 | 296 |  |  |  |  | attenuate the binding of both α-MSH and AgRP to MC4-R | 1 | 208 |  |  |
